# From patent US7452695B2, “Methods for increasing polypeptide production” (Immunex Corporation, priority 2002, dated 2008)
# Values joined by “and” are separate entries in the source; they are usually repeats but may differ in a detail not shown here. Equal entries are not always repeated. Where two headings read alike, the source gives them in different places.
# Experiments:
# [1] = tested on: cell line #9; test: Induction effects of xanthine derivatives in cell line #9, shake flasks, 6 days at 31° C. (Example 5); type: cell-based, Chinese hamster; conditions: for protein titer compared with the no inducer control culture: concentrations of Table 3 (0.1-1 mM xanthines; 0.5 mM butyrate)
# Experimental: To dissolve 3-isobutyl-1-methylxanthine (IBX), it was solubilized in water heated to almost the boiling point, and quickly added to the flasks before it precipitated. […] The induction phase of the cell culture was carried out for 6 days at 31° C., and samples were removed for analysis at 3 day and 6 day timepoints.
# [2] = tested on: CHO cells stably transformed with nucleic acids encoding an antibody against a murine IL-4 receptor
# [3] = tested on: CHO cell production line genetically engineered to express TNFR:Fc (cell line #5); test: Induction of TNFR:Fc expression, shaker flasks, 5 days at 31° C. (Example 1); type: cell-based, Chinese hamster
# Experimental: CHO cells were grown in spinner flasks at 37° C. using serum-free growth medium containing methotrexate. […] The cells, at initial cell densities of 2×10^6 cells/ml in 20 ml, were placed in 125 ml plastic Erlenmeyer flasks with plug seal caps and placed on shaker platforms in incubators set to the appropriate temperatures. Cell viability and number were monitored by haemocytometer counting using trypan blue dye. Recombinant polypeptide titers were assessed by ELISA-based assays. […] A flask containing no inducing compound was also included. The shaker flasks were incubated in this induction phase for 5 days at 31° C. in incubators without carbon dioxide control.
# [4] = tested on: CHO cells stably transformed with nucleic acids encoding RANK:Fc; test: Production of RANK:Fc with HMBA, caffeine and/or butyric acid, shaker flask, 5 days at 31° C. (Example 8); type: cell-based, Chinese hamster
# Experimental: Nucleic acids encoding RANK:Fc inserted into a suitable vector (as described in International Application WO 01/36637) were introduced into CHO cells. […] Cells were grown for a total of 5 days in shaker flasks. Thereafter, all medium was harvested. The number of cells present in the culture was determined by staining with trypan blue and counting the cells in a hemocytometer. […] An average number of cells in the culture was calculated by averaging the starting and ending cell numbers. Specific productivity was determined from the total number of micrograms of RANK:Fc produced, an average cell number (calculated as described above), and the number of days of growth. Nucleic acids encoding RANK:Fc inserted into a suitable vector (as described in International Application WO 01/36637) were introduced into CHO cells. […] Cells were grown for a total of 5 days in a shaker flask. Thereafter, all medium was harvested. The number of cells present in the culture, the titer of RANK:Fc per milliliter of harvested medium, and specific productivity were determined as described above in Example 7.
# [5] = tested on: CHO cells stably transformed with nucleic acids encoding RANK:Fc; test: Production of RANK:Fc with varying amounts of HMBA, shaker flasks, 5 days at 31° C. (Example 7); type: cell-based, Chinese hamster
# Experimental: Nucleic acids encoding RANK:Fc inserted into a suitable vector (as described in International Application WO 01/36637) were introduced into CHO cells. […] Cells were grown for a total of 5 days in shaker flasks. Thereafter, all medium was harvested. The number of cells present in the culture was determined by staining with trypan blue and counting the cells in a hemocytometer. […] An average number of cells in the culture was calculated by averaging the starting and ending cell numbers. Specific productivity was determined from the total number of micrograms of RANK:Fc produced, an average cell number (calculated as described above), and the number of days of growth.
# [6] = tested on: CHO cells stably transformed with nucleic acids encoding a type II IL-1 receptor; test: Production of type II IL-1 receptor with HMBA in a bioreactor (Example 9); type: cell-based, Chinese hamster; conditions: 2 mM, added at shift to 31° C. after 2 days at 37° C., 12 more days
# Experimental: About 500 thousand cells from a stably transformed line were inoculated into a one liter of serum-free medium in a bioreactor. Cells were grown for two days at 37° C. Thereafter, cells were shifted to 31° C., either without HMBA or in the presence of 2 mM HMBA, and grown for 12 more days. Thereafter, all medium was harvested. […] Data from this experiment are shown in Table 6 as a percentage of the average of the protein titers obtained from the two samples without HMBA rounded to the nearest whole number.
compound,measurement,setting,value
"Cn1c(=O)c2[nH]cnc2n(C)c1=O [aminophylline, theophylline compound with 1,2-ethylenediamine (2:1) dihydrate]",Titer (μg/ml) Day 3,[1]; 0.1 mM,110 µg/mL
same,Titer (μg/ml) Day 6,[1]; 0.1 mM,260 µg/mL
same,Titer (μg/ml) Day 3,[1]; 0.5 mM,120 µg/mL
same,Titer (μg/ml) Day 6,[1]; 0.5 mM,250 µg/mL
same,Titer (μg/ml) Day 3,[1]; 1 mM,100 µg/mL
same,Titer (μg/ml) Day 6,[1]; 1 mM,200 µg/mL
same,protein titer compared with the no inducer control culture,[1],did not induce protein titers above that seen in the no inducer control culture
"CCCC(=O)[O-].[Na+] [butyrate, sodium butyrate]",production of the antibody compared with no inducer,[2]; 0.5 mM,enhanced production of the antibody
same,rate (in μg protein/10^6 cells/day) relative to control cultures,[3]; 0.2 mM,about 1.07 times the rate of control cultures
same,total protein (in μg/ml) relative to control culture,[3]; 0.2 mM,about 1.11 times the total protein produc
same,Titer (μg/ml) Day 3,[1]; 0.5 mM,100 µg/mL
same,Titer (μg/ml) Day 6,[1]; 0.5 mM,220 µg/mL
same,protein titer compared with the no inducer control culture,[1],does not induce increased protein titer over that seen in a culture with no inducer
"CC(=O)NCCCCCCNC(C)=O [HMBA, hexamethylene bisacetamide]",production of the antibody compared with no inducer,[2]; 2 mM,enhanced production of the antibody
same,extent of enhancement of antibody production compared with sodium butyrate (0.5 mM),"[2]; 2 mM, 31° C.",to a greater extent than did sodium butyrate
same,Specific productivity (μg/10^6 cells/day),[4]; 2 mM,22.8 μg/10^6 cells/day
same,Titer of RANK: Fc,[4]; 2 mM,410 µg/mL
same,Specific productivity (μg/10^6 cells/day),[5]; 0.1 mM,19.1 μg/10^6 cells/day
same,Titer of RANK: Fc,[5]; 0.1 mM,243 µg/mL
same,Specific productivity (μg/10^6 cells/day),[5]; 0.5 mM,19.5 μg/10^6 cells/day
same,Titer of RANK: Fc,[5]; 0.5 mM,347 µg/mL
same,Specific productivity (μg/10^6 cells/day),[5]; 2.0 mM,23.9 μg/10^6 cells/day
same,Titer of RANK: Fc,[5]; 2.0 mM,444 µg/mL
same,Relative Titer of type II IL-1 Receptor (percent of average of samples without HMBA),[6],120% and 125%
"CC(C)Cn1c(=O)n(C)c(=O)c2[nH]cnc21 [IBX, 3-isobutyl-1-methylxanthine]",Titer (μg/ml) Day 3,[1]; 0.5 mM,150 µg/mL
same,Titer (μg/ml) Day 6,[1]; 0.5 mM,420 µg/mL
same,production compared with caffeine,[1]; 0.5 mM,even better than caffeine
"CCCC(=O)O [Butyric acid, butyric acid]",Specific productivity (μg/10^6 cells/day),[4]; 0.5 mM,31.6 μg/10^6 cells/day
same,Titer of RANK: Fc,[4]; 0.5 mM,476 µg/mL
"Cn1cnc2c1c(=O)[nH]c(=O)n2C [theobromine, 3,7-dimethylxanthine]",Titer (μg/ml) Day 3,[1]; 0.1 mM,90 µg/mL
same,Titer (μg/ml) Day 6,[1]; 0.1 mM,270 µg/mL
same,Titer (μg/ml) Day 3,[1]; 0.5 mM,100 µg/mL
same,Titer (μg/ml) Day 6,[1]; 0.5 mM,260 µg/mL
same,Titer (μg/ml) Day 3,[1]; 1 mM,100 µg/mL
same,Titer (μg/ml) Day 6,[1]; 1 mM,260 µg/mL
same,protein titer compared with the no inducer control culture,[1],did not induce protein titers above that seen in the no inducer control culture
"Cn1c(=O)c2c(ncn2C)n(C)c1=O [caffeine, 1,3,7-trimethylxanthine]",Specific productivity (μg/10^6 cells/day),[4]; 1 mM,23.6 μg/10^6 cells/day
same,Titer of RANK: Fc,[4]; 1 mM,362 µg/mL
same,rate of production compared with 0.2 mM butyrate culture,[3]; 0.5 mM,slightly higher rates of production
same,rate of productivity per cell compared with no inducing agent,[3]; 2 mM,higher
